Laboratory results as given in patent publication US9771378B2 (Denali Therapeutics, Inc., priority 2014, dated 2017).

System: Aβ42 (human neuroglioma H4 cells expressing human wild type APP751)
Experiment: In vitro cell screening assay with sandwich ELISA quantification of Aβ42 peptide
Type: cell-based
Conditions: H4 cells stably expressing human wild type APP751; Pro293 chemically defined medium; compounds 0.003-10 μM; incubated overnight (16-18 h); supernatant Aβ42 by sandwich ELISA; normalized to DMSO and DAPT; read-out: Aβ42 H4 Prot Fre IC50
In short: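 H4 neuroglioma cells stably expressing human wild-type APP751 were treated in Pro293 medium with compounds (0.003-10 μM, 0.33% DMSO) for 16-18 h at 37° C. Secreted Aβ42 measured by sandwich ELISA (C-terminal capture, 4G8-HRP detection, TMB, 450 nm). IC50 by variable-slope sigmoidal regression on percent of DMSO control.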

Work on `Cc1cn(-c2ccc(Nc3ncc4c(n3)N(C)C(c3ccc(F)cc3Cl)CO4)cc2F)cn1` (single isomer, unassigned; (-)) [Example 101B] yielded an IC50 of 685 nM.
In the case of `COc1cc(Nc2ncc3c(n2)N(C)C(C(F)(F)F)CO3)ccc1C#N` (single isomer, unassigned; (-)) [Example 230B, (−)-2-methoxy-4-((8-methyl-7-(trifluoromethyl)-7,8-dihydro-6H-pyrimido [5,4-b] [1, 4]oxazin-2-yl)amino) benzonitrile], the IC50 is reported as 717 nM.
`COc1cc(Nc2ncc3c(n2)N(C)C(C2CC(F)(F)C2)CO3)cnc1-n1cnc(C)c1` (single isomer, unassigned; (+)) [Example 219A] gave an IC50 of 25 nM.
In the case of `COc1cc(Nc2ncc3c(n2)N(C)C(c2cc(F)cc(F)c2)CO3)ccc1-n1cnc(Cl)c1` (single isomer, unassigned; (+)) [Example 204B], the IC50 is reported as 19 nM.
Compound `Cc1cc(-c2ccc(Nc3ncc4c(n3)N(C)C(c3cc(F)c(F)c(F)c3)CO4)cc2)ccn1` (single isomer, unassigned; (-)) [Example 37B] has an IC50 of 1540 nM.
With `Cc1cn(-c2ccc(Nc3ncc4c(n3)N(C)C3(CC3)CO4)nc2)cn1` [Example 265] the IC50 was greater than 3000 nM.
`COc1cc(Nc2ncc3c(n2)N(C)C(C2CCS(=O)(=O)CC2)CO3)ccc1-n1cnc(C)c1` (single isomer, unassigned; (+)) [Example 239B, (+)-4-(2-((3-methoxy-4-(4-methyl-1H-imidazol-1-yl)phenyl)amino)-8-methyl-7,8-dihydro-6H-pyrimido [5,4-b] [1, 4]oxazin-7-yl) tetrahydro-2H-thiopyran 1,1-dioxide] showed an IC50 of 380 nM.
`COc1cc(Nc2ncc3c(n2)N(C)C(C2COC2)CO3)cnc1-n1cnc(C)c1` (single isomer, unassigned; (-)) [Example 243B] showed an IC50 of 814 nM.
For `COc1cc(Nc2ncc3c(n2)N(C)C(C(F)(F)F)CO3)ccc1-n1cnc(C)c1` (single isomer, unassigned; (+)) [Example 187A], the IC50 was 419 nM.
Work on `COc1cc(Nc2ncc3c(n2)N(C)C(C)CO3)ncc1-n1cnc(C)c1` (racemic) [Example 234] yielded an IC50 of 1770 nM.
In the case of `Cc1cn(-c2ccc(Nc3ncc4c(n3)N(C)C(c3cc(F)cc(F)c3)CO4)cc2C#N)cn1` (single isomer, unassigned; (-)) [Example 203B, (−)-5-((7-(3,5-difluorophenyl)-8-methyl-7,8-dihydro-6H-pyrimido [5,4-b] [1, 4]oxazin-2-yl)amino)-2-(4-methyl-1H-imidazol-1-yl) benzonitrile], the IC50 is reported as 210 nM.
Compound `COc1cc(Nc2ncc3c(n2)N(C)C(c2ccccc2C)CO3)ccc1-n1cnc(C)c1` (single isomer, unassigned; (-)) [Example 31A] has an IC50 of 138 nM.
For `COc1cc(Nc2ncc3c(n2)N(C)C2(CO3)CC(F)(F)C2)ccc1-n1cnc(Cl)c1` [Example 277], the IC50 was 97 nM.
In the case of `Cc1cn(-c2ccc(Nc3ncc4c(n3)N(C)C(Cc3ccccc3)CO4)cc2F)cn1` (single isomer, unassigned; (+)) [Example 59A], the IC50 is reported as 81 nM.
In the case of `Cc1cc(-c2ccc(Nc3ncc4c(n3)N(C)C(Cc3ccccc3)CO4)cc2F)ccn1` (single isomer, unassigned; (-)) [Example 57B], the IC50 is reported as 880 nM.
With `COc1cc(Nc2ncc3c(n2)N(C)C(c2ccc(F)cc2)CO3)ccc1-c1ccnc(C)c1` (single isomer, unassigned; (-)) [Example 61A] the IC50 was 1010 nM.
Work on `Cc1cn(-c2ccc(Nc3ncc4c(n3)N(C)C(c3ccc(Cl)cc3C(F)(F)F)CO4)cc2F)cn1` (single isomer, unassigned; (+)) [Example 106A] yielded an IC50 of 154 nM.
In the case of `COc1cc(Nc2ncc3c(n2)N(C)C2(COC2)CO3)ccc1-n1cnc(C)c1` [Example 271], the IC50 is reported as 364 nM.
`COc1cc(Nc2ncc3c(n2)N(C)C(C)(C)CO3)ccc1-n1cnc(C)c1` [Example 254] gave an IC50 of 54 nM.
`COc1nc(Nc2ncc3c(n2)N(C)C(c2ccccc2C)CO3)ccc1-n1cnc(C)c1` (single isomer, unassigned; (-)) [Example 180A] showed an IC50 greater than 3000 nM.
`COc1nc(Nc2ncc3c(n2)N(C)C(c2cc(F)c(F)c(F)c2)CO3)c(F)cc1-c1cnn(C)c1` (racemic) [Example 196] gave an IC50 of 544 nM.
`COc1cc(Nc2ncc3c(n2)N(C)C(c2ccc(F)cc2F)CO3)ccc1-c1ccnc(C)c1` (single isomer, unassigned; (-)) [Example 63A] showed an IC50 of 543 nM.
Work on `Cc1cn(-c2ccc(Nc3ncc4c(n3)N(C)C(c3ccccc3OC(F)(F)F)CO4)cc2F)cn1` (single isomer, unassigned; (-)) [Example 64B] yielded an IC50 of 741 nM.
With `COc1cc(Nc2ncc3c(n2)N(C)C2(CCOCC2)CO3)cnc1-n1cnc(C)c1` [Example 274] the IC50 was 295 nM.
For `Cc1cn(-c2ccc(Nc3ncc4c(n3)N(C)C(c3cc(F)c(F)c(F)c3)CO4)cc2F)cn1` (single isomer, unassigned; (+)) [Example 118A], the IC50 was 29 nM.
`Cc1cn(-c2ccc(Nc3ncc4c(n3)N(C)C(c3ccccc3C)CO4)cc2)cn1` (single isomer, unassigned; (+)) [Example 43A] showed an IC50 of 31 nM.
Work on `COc1ccc(Cl)c(C2COc3cnc(Nc4cnc(-n5cnc(C)c5)c(OC)c4)nc3N2C)c1` (single isomer, unassigned; (-)) [Example 208B] yielded an IC50 of 136 nM.
With `COc1cc(Nc2ncc3c(n2)N(C)C(c2ccccc2Cl)CO3)ccc1-n1cnc(C)c1` (racemic) [Example 51] the IC50 was 32 nM.
